The source made the active and inactive calls.
How the values were obtained:
[1] = biological target: T1, Heat shock factor protein 1 (Mus musculus, UniProt P38532); test: enhancement of HSF1-driven luciferase signal – cell-based, NIH3T3, luminescence, dose retest, confirmation (AID 435004); format: functional;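 further: stress induced by proteasome inhibitor MG132 added 30 min after compound; luciferase reporter driven by HSF1 response element in NIH3T3 cells; actives raise luminescence as potentiators of the MG132 stress response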
T1 sequence (P38532 whole entry): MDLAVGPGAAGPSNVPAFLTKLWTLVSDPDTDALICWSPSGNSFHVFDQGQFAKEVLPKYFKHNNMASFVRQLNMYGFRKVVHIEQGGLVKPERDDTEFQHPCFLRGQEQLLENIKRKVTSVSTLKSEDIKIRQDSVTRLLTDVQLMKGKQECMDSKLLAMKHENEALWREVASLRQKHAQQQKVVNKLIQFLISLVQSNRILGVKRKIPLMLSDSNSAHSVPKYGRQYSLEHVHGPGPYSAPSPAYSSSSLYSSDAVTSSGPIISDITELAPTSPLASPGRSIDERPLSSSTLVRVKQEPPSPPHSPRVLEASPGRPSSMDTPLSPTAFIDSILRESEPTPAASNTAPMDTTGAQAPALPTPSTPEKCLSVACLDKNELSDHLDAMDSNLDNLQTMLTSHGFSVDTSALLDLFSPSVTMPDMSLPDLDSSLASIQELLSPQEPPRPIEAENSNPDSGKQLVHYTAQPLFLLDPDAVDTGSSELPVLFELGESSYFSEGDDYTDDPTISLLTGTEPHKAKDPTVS

[2] = biological target: T2, Type-1 angiotensin II receptor (Homo sapiens, UniProt P30556); test: antagonism of angiotensin II type 1 receptor – cell-based, uHTS hits, selectivity assay for APJ receptor antagonist project, dose response (AID 463214); format: functional;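 further: antagonist potency against angiotensin II stimulated AT1 response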
T2 sequence (P30556 whole entry): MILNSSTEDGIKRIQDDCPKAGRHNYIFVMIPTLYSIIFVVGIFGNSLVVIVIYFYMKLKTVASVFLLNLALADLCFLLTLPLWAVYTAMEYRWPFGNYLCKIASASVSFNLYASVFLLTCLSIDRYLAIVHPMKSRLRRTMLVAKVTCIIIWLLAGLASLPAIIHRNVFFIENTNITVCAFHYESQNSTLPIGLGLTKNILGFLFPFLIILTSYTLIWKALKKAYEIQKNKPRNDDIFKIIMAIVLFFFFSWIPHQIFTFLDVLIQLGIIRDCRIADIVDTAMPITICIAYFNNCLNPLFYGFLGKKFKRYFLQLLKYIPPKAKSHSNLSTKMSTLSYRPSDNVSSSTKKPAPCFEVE

Beta-galactosidase = Beta-galactosidase (Escherichia coli, UniProt Q8VNN2); test: PubChem AID 485352; format: functional
SUMO-activating enzyme [3] = biological target: T3, SUMO-activating enzyme (Homo sapiens, UniProt Q9UBT2); test: blockers of UBC9-mediated SUMO conjugation – biochemical, AlphaScreen, SUMOylation inhibitor project, confirmation (AID 2018); format: functional
SUMO-activating enzyme [4] = biological target: T3, SUMO-activating enzyme; test: blockers of SAE1/SAE2–UBC9 SUMO transfer – biochemical, HTRF, uHTS, primary screen (AID 2006); format: protein-complex assay
Vero = test: viability of Vero cells under compound – cytotoxicity control for flavivirus capping enzyme inhibitors (AID 588742); format: functional; details: Chlorocebus sabaeus
Large T antigen = Large T antigen (Simian virus 40, UniProt P03070); format: functional, Betapolyomavirus macacae;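 further: Confirmatory-stage PubChem screen for compounds that inhibit SV40 T antigen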
[5] = biological target: T4, E3 ubiquitin-protein ligase XIAP (Homo sapiens, UniProt P98170); test: Counter Screen using XIAP-Bir3 for Chemical Antagonists of Bir1/2 domains of IAP-family anti-apoptotic proteins. [Related pubchem assays (depositor defined):AID1018, AID1449, AID1514, AID1638, AID1749, AID1750, AID488957, AID488963]
[6] = biological target: T5, Corticotropin-releasing factor receptor 2/Corticotropin-releasing factor-binding protein (Homo sapiens, UniProt P24387+Q13324); test: Dose Response confirmation of uHTS hits for small molecule antagonists of the CRF-binding protein and CRF-R2 receptor complex.; format: functional; details: read-out: IC50_Mean
T5 sequence (Q13324 whole entry): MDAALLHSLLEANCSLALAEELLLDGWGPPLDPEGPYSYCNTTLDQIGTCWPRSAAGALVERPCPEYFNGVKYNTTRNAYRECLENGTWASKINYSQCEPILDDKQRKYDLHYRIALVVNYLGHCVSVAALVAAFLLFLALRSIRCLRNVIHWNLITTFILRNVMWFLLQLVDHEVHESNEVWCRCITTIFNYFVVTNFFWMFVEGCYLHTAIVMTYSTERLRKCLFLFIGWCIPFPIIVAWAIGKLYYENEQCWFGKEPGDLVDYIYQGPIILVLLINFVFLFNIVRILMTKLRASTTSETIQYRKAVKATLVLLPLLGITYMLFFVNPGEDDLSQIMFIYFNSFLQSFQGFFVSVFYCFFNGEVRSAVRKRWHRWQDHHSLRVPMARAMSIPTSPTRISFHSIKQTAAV
T5 sequence (P24387 whole entry): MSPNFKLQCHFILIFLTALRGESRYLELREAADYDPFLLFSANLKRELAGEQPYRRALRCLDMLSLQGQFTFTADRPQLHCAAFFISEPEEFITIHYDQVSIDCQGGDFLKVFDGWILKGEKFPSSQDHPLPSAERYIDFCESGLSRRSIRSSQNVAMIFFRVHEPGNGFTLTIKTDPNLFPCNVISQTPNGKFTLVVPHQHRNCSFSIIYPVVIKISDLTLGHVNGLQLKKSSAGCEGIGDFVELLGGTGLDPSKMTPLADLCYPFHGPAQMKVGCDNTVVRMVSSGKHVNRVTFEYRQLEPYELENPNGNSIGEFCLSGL

[7] = biological target: T6, Short transient receptor potential channel 4 (Mus musculus, UniProt Q9QUQ5); test: block of DAMGO-driven TRPC4 calcium entry – cell-based, HEK293 TRPC4/mu-opioid, Fluo-4 calcium, dose response (AID 434942); format: functional;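 further: potency of inhibitors blocking the TRPC4 calcium response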
T6 sequence (Q9QUQ5 whole entry): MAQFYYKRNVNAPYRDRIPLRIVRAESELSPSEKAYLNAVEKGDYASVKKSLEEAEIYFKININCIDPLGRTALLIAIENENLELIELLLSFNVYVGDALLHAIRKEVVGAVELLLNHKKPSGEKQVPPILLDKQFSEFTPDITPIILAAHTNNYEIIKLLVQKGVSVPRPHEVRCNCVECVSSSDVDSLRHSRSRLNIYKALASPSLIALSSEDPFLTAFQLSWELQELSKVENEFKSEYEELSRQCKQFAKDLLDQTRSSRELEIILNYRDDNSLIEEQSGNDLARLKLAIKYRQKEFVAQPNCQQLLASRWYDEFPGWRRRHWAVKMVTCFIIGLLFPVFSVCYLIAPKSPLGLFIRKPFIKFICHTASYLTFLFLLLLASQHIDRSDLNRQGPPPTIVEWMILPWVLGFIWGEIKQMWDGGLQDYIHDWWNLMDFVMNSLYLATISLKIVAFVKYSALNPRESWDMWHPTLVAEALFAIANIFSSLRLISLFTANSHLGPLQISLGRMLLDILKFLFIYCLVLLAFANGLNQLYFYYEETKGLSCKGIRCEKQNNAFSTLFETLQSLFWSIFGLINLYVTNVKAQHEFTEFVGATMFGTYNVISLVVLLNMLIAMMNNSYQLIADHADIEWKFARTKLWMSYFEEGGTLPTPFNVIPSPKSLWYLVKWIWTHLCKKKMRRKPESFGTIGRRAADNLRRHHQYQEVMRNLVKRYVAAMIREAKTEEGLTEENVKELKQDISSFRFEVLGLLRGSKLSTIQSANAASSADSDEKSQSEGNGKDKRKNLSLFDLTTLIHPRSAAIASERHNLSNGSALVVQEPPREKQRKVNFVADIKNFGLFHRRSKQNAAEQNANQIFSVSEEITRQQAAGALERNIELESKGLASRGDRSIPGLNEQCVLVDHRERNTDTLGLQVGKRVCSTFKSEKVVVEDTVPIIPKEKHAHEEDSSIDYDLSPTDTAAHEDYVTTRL

[8] = biological target: T5, Corticotropin-releasing factor receptor 2/Corticotropin-releasing factor-binding protein; test: activators of CRF receptor 2 with binding protein – uHTS hits, confirmation (AID 602473); format: functional; details: read-out: EC50_Mean
[9] = biological target: T4, E3 ubiquitin-protein ligase XIAP; test: small molecules displacing peptide from XIAP – biochemical, IAP family, fluorescence polarization (AID 1018); format: functional
Genome polyprotein = Genome polyprotein (dengue virus type 2, UniProt P29990); test: flavivirus cap methylation enzyme inhibition – biochemical, confirmation dose response, primary screen (AID 588689); format: functional
[10] = biological target: Beta-2 adrenergic receptor (Homo sapiens, UniProt P07550); test: ADRB2 activation measured by internalization – cell-based, FAP fluorogen, flow cytometry, cherry pick 1, dose response (AID 588763); format: functional
[11] = biological target: T7, Lysosomal acid glucosylceramidase (Homo sapiens, UniProt P04062); test: Dose response cell-based high throughput screening assay to identify enhancers of beta-glucosidase activity. [Related pubchem assays: 784 ]; format: functional
T7 sequence (P04062 whole entry): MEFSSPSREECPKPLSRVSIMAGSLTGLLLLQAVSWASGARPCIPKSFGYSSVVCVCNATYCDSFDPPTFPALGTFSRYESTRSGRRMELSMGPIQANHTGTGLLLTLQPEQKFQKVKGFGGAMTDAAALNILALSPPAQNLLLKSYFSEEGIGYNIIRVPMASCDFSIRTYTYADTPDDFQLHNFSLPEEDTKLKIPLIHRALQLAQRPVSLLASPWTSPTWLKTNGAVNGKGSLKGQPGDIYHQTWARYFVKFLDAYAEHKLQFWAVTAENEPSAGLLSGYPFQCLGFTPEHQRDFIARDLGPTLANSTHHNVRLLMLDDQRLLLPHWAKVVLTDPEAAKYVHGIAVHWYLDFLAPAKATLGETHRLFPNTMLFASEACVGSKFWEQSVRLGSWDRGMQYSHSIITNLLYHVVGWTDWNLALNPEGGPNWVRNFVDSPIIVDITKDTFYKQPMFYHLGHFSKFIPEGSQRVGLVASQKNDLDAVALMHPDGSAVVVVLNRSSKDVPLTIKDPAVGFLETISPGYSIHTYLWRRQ

[12] = biological target: T8, Long-chain-fatty-acid--AMP ligase FadD28 (Mycobacterium tuberculosis, UniProt P9WQ59); test: Fluorescence polarization aasay to screen for inhibitors that compete for the binding of FadD28 to a bisubstrate Measured in Biochemical System Using Plate Reader - 2147-01_Inhibitor_Dose_CherryPick_Activity.; format: functional, Mycobacterium tuberculosis H37Rv
T8 sequence (P9WQ59 whole entry): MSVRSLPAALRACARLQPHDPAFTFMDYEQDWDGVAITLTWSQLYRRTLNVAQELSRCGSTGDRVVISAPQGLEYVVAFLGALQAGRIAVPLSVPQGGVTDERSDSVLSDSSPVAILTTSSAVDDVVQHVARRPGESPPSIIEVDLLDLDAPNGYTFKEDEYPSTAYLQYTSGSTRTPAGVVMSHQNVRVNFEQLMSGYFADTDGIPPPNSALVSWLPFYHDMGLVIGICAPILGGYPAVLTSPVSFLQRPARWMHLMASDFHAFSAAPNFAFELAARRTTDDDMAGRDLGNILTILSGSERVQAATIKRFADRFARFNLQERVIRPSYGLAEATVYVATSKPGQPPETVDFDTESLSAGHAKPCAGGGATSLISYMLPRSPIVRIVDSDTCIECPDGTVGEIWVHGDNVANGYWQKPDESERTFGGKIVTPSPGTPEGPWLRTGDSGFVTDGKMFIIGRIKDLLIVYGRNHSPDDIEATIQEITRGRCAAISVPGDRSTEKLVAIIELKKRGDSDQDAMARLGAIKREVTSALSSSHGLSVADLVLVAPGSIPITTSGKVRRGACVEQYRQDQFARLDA

[13] = biological target: Glucose-6-phosphate 1-dehydrogenase (Homo sapiens, UniProt P11413); test: inhibition of Homo sapiens G6PD, dose series – biochemical, fluorescence, selectivity assay for P. falciparum G6PD inhibitor project, dose response (AID 504792); format: functional
Sequence of Glucose-6-phosphate 1-dehydrogenase (P11413 whole entry): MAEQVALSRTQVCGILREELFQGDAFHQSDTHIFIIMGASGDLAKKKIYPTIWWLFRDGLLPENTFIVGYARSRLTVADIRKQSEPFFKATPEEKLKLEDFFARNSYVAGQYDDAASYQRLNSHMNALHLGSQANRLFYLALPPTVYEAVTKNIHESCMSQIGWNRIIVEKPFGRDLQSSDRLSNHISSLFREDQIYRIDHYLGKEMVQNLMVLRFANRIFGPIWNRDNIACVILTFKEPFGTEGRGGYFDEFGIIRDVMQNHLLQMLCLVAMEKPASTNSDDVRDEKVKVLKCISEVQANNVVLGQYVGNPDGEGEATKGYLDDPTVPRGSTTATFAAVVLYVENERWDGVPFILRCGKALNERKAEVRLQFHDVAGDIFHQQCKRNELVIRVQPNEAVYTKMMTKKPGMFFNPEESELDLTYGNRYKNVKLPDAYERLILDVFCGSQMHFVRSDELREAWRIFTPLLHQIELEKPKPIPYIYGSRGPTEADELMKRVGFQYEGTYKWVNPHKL

Sequence of Beta-galactosidase (Q8VNN2 whole entry): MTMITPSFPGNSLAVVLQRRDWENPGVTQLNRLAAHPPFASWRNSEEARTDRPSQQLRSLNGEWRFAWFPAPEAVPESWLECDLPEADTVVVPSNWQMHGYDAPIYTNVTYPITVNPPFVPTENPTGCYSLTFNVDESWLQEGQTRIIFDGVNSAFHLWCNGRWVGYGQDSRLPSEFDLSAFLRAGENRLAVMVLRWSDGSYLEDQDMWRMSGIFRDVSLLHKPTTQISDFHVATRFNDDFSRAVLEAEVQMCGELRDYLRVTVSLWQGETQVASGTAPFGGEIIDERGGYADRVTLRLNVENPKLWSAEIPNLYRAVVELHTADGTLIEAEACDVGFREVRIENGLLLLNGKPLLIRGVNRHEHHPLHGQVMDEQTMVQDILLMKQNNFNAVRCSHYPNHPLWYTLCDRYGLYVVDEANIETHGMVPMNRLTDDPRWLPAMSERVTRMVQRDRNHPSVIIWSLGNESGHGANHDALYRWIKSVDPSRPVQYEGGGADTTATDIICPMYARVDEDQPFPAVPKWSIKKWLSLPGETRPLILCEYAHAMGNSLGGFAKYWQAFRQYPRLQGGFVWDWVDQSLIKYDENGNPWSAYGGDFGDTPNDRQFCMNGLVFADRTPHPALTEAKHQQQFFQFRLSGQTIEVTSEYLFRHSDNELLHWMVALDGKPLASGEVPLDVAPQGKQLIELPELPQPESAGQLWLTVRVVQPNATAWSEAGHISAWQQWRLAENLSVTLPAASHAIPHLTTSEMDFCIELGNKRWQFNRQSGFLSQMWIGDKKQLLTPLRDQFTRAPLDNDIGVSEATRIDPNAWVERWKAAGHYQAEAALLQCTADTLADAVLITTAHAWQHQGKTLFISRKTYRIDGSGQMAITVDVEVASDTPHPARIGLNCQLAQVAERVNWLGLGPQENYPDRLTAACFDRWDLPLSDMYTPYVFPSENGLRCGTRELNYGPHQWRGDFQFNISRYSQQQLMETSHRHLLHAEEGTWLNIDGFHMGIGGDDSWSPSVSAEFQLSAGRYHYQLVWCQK
T4 sequence (P98170 whole entry): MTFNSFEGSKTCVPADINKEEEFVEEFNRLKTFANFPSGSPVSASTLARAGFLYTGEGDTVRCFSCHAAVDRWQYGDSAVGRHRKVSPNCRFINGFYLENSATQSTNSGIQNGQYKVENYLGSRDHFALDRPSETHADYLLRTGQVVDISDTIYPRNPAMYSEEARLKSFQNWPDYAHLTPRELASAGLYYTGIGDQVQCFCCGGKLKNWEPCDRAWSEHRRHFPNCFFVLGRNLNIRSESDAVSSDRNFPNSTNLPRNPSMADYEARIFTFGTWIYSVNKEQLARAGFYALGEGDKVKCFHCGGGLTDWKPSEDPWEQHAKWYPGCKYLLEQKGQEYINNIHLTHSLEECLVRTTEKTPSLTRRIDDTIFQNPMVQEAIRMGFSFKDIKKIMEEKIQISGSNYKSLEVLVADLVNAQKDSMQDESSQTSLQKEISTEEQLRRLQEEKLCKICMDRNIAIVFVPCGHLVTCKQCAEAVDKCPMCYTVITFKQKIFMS
T3 sequence (Q9UBE0 whole entry): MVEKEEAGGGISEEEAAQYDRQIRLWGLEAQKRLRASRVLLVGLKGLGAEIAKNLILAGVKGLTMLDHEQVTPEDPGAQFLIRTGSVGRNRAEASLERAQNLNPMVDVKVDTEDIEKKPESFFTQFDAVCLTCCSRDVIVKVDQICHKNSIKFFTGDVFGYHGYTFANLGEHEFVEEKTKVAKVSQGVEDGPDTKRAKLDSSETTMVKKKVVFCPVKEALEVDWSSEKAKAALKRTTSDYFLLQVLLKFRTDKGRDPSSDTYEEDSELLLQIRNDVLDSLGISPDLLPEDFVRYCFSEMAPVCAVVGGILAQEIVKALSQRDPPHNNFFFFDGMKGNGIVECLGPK
T3 sequence (Q9UBT2 whole entry): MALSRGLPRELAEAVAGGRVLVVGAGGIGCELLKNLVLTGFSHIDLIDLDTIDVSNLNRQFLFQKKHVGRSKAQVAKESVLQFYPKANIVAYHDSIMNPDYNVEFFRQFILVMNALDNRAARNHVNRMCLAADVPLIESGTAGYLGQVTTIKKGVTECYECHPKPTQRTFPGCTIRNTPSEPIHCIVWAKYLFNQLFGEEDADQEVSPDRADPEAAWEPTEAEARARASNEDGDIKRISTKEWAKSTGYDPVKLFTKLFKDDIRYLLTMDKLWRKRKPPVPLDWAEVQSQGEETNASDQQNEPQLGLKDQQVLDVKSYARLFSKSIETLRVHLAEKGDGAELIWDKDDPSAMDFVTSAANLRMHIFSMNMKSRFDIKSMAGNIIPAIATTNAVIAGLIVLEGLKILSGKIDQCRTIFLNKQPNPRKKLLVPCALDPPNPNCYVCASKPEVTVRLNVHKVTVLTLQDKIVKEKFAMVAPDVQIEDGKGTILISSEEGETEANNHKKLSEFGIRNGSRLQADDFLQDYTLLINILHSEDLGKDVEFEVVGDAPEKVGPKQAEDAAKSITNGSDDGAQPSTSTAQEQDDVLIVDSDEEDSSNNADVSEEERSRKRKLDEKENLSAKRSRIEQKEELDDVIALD
Sequence of Genome polyprotein (P29990 2492-3391 limits assumed): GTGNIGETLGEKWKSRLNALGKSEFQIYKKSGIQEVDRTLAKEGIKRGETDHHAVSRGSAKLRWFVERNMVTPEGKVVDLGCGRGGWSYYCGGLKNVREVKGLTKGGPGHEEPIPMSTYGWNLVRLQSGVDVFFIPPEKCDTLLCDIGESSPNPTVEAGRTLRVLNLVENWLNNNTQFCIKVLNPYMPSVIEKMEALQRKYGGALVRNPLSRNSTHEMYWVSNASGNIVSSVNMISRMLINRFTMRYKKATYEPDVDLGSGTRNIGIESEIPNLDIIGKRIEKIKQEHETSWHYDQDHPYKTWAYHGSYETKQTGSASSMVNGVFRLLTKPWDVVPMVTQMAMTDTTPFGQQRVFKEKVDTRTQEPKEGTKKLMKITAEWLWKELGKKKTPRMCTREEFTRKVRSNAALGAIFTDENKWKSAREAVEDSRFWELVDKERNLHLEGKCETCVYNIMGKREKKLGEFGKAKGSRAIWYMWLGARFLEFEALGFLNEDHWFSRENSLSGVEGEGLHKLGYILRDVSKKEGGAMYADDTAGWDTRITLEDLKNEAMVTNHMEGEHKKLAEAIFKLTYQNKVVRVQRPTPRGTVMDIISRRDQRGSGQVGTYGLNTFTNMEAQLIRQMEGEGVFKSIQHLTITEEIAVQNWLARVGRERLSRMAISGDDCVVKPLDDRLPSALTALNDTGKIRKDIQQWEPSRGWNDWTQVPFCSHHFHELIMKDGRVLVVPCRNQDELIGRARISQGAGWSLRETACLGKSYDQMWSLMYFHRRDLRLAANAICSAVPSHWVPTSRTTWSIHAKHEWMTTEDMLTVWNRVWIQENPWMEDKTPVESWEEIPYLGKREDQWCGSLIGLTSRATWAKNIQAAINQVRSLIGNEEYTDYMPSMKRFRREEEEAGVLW
Sequence of Large T antigen (P03070 whole entry): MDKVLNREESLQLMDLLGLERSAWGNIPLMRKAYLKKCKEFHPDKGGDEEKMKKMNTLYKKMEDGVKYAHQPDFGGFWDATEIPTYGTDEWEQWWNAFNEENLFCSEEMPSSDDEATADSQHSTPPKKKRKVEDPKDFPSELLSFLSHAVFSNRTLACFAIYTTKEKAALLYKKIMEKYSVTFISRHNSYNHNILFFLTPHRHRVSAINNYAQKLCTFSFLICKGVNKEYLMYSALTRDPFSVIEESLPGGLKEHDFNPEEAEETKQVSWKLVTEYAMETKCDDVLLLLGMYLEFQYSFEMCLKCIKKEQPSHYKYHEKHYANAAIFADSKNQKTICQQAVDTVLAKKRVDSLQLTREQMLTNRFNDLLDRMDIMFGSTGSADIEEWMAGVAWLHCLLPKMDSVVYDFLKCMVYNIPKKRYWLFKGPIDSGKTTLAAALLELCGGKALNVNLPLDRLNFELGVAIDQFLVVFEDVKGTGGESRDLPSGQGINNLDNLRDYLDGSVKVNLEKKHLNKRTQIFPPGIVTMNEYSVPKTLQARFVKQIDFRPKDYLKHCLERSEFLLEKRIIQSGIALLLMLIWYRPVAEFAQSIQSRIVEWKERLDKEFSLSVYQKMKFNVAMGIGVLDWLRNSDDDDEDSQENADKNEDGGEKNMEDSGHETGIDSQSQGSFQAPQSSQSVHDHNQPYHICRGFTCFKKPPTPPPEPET
Sequence of Beta-2 adrenergic receptor (P07550 whole entry): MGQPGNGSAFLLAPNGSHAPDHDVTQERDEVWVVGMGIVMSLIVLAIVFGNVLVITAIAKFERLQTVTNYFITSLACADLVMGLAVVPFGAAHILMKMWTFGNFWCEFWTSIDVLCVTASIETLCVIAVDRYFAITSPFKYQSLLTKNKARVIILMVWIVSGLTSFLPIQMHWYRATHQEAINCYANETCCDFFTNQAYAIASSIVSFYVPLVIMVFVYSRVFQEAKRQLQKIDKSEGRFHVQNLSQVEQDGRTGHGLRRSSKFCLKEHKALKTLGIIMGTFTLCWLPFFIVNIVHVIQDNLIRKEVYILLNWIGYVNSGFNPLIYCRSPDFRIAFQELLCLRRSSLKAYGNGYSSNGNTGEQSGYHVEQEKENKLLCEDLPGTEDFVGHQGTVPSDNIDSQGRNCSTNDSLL

SMILES: CC(=O)c1ccc(NC2=c3ccccc3=NC2=O)cc1
- EC50 [1]: > 260 µM (inactive)
- IC50 [2]: 3.1 µM (active)
- EC50 (Beta-galactosidase): > 40 µM (inactive)

SMILES: CCc1ccc(C(=O)NNc2ccc(Cl)cc2)cc1
- IC50 [2]: 6.08 µM (active)
- EC50 (Beta-galactosidase): > 40 µM (inactive)

SMILES: CCc1ccc(NC(=O)NNC(=O)c2cc3ccccc3cc2O)cc1
- IC50 (SUMO-activating enzyme [3]): 37.2 µM (active)
- IC50 (SUMO-activating enzyme [4]): 11.6 µM (active)

SMILES: O=C(O)CN1C(=O)/C(=C\C(Br)=C\c2ccccc2)SC1=S
- CC50 (Vero): > 40 µM (active)
- IC50 (Large T antigen): 53.4 µM (active)

SMILES: O=C(O)CN1C(c2ccccc2O)Nc2ccc(Br)cc2C1c1ccccc1 (centres undefined)
- IC50 [5]: > 100 µM (inactive)
- IC50 [6]: 28.6 µM (active)
- EC50 [7]: 5.31 µM (active)
- EC50 [8]: > 53 µM (inactive)
- IC50 [9]: > 100 µM (not active)

SMILES: O=S(=O)(Nc1nc2ccccc2nc1NCc1ccco1)c1ccc(Cl)cc1
- IC50 (Genome polyprotein): 91.9 µM (active)
- CC50 (Vero): > 40 µM (active)

SMILES: NC(=O)CC(NC(=O)Cc1cccc2ccccc12)c1ccc(NCCCN2CCCC2=O)c([N+](=O)[O-])c1 (centres undefined)
- EC50 [10]: 801 nM (active)

SMILES: CC1CCCCN1C(=O)CSc1nc2cc3c(cc2c(=O)n1Cc1ccc2c(c1)OCO2)OCO3 (centres undefined)
- EC50 [11]: > 50 µM (not active)
- IC50 [2]: > 40 µM (not active)
- EC50 (Beta-galactosidase): > 40 µM (inactive)

SMILES: CCCCCCCCSC1=CC(=O)C(OC)=C(OC)C1=O
- AC50 [12]: 30.9 µM (active)
- IC50 (Genome polyprotein): 12.5 µM (active)
- IC50 [13]: 48.1 µM (inactive)
- CC50 (Vero): > 40 µM (active)

— ChEMBL document CHEMBL1201862, “PubChem BioAssay data set” (2004)
